Reference: patent US20230165970A1, “COMPOSITIONS AND METHODS FOR THE TREATMENT OF BACTERIAL INFECTIONS” (priority 2017, published 2023)
Values after ≈ are worked out from the molar mass of the structure shown. Where two headings read alike, the source gives them in different places. *1 amine or outer side, *2 acyl side, *3 side chain or, on linkers, in order; H or OH if unused. Where a SMILES comes first, the peptide text is derived from it. Bridges are numbered along the chain shown (N, C = ends). Roman numbers before positions name the chains, in order. [ ]: non-standard residue; d: D form. The star is where a group is joined. ξ: configuration not given here. X9 = C#CCOCCOCCOCCOCCC(=O)N1C[C@@H](C(=O)[*:1])[C@H](C(=O)[*:2])C1; X4 = C#CCOCCOCCOCCOCCNC(=O)CN(CC(=O)[*:1])CC(=O)[*:2]; X10 = O=C([C@@H](N[*:1])[C@H](O)CCc1ccccc1)[*:2]; Propargyl(OCH2CH2)4CO = C#CCOCCOCCOCCOCCC(=O)*; X11 = CCCCCCCC[C@@H](O)[C@H](N[*:1])C(=O)[*:2]; X1 = CCCCCC[C@@H](O)[C@H](N[*:1])C(=O)[*:2]; X3 = CCCCC[C@@H](O)[C@H](N[*:1])C(=O)[*:2]; Nle = CCCC[C@H](N)C(=O)O; ξF = NC(Cc1ccccc1)C(=O)O; Dab = NCC[C@H](N)C(=O)O; ξT = CC(O)C(N)C(=O)O; azaGly = NNC(=O)O

Experiments:
LPS from E. coli O111:B4 = experiment: LPS binding/neutralization by Limulus Amebocyte Lysate (LAL) assay; assay type: biochemical; settings: LPS 1-10,000 ng/mL, test article 0.25-10 μM; sum of AUCs relative to maximal AUC (Table 14)
Experimental: The LAL assay (Charles River) was used to determine the binding affinity of test articles to LPS.
For the assay, 25 μL purified LPS from E. coli O111:[…] (Sigma) at doses ranging from 1-10,000 ng/mL were incubated with 25 μL of test article at concentrations ranging from […]. After 5 min incubation at 37° C., 50 μL of LAL reagent, which reacts with lipid A portion from LPS, was added to corresponding wells. After 15 min, absorbance at 405 nm was read on EnSpire plate reader (Perkin Elmer). The % LPS neutralization is calculated relative to a PBS control (background) and LPS control at each concentration (positive control).
LPS neutralization=(1−(absorbance test article−PBS with LAL reagent)/(absorbance no test article−PBS with LAL reagent))×100
To obtain a single value of LPS neutralization for each test article, the area under the curve (AUC) for dose-response of test articles from […] for each LPS concentration was calculated using Prism 7 software. The % LPS neutralization is the sum of the AUCs for each LPS concentration determined relative to the maximal AUC achievable×100.
For the assay, 25 μL purified LPS from E. coli O111:B4 (Sigma) at doses ranging from 1-10,000 ng/mL were incubated with 25 μL of test article at concentrations ranging from 0.25-10 μM. After 5 min incubation at 37° C., 50 μL of LAL reagent, which reacts with lipid A portion from LPS, was added to corresponding wells. After 15 min, absorbance at 405 nm was read on EnSpire plate reader (Perkin Elmer). The % LPS neutralization is calculated relative to a PBS control (background) and LPS control at each concentration (positive control).

Ec 2469 = assay type: cell-based, Escherichia coli
Experimental: (§1) Briefly, stock solutions of all antibacterial agents were prepared fresh in appropriate solvents (i.e. PBS, pH 7.4, DMSO, DI, etc.). Stock concentrations for drug conjugates were made at 12.5× the highest final assay concentration. All were serially diluted 2-fold, 8 or 12 times in a 96-well PCR plate (VWR cat. no. 83007-374). Bacterial cell suspensions generated from Mueller-Hinton agar (MHA) plate cultures were prepared in 0.85% saline and adjusted to ˜0.1 OD600 nm. […] For the conjugates, 92 μL of each cell suspension in RPMI B were added in the same 96-well plate assay format. […] Compounds were tested against a 14-strain panel comprised of E. coli (Ec), A. baumannii (Ab), P. aeruginosa (Pa), and K. pneumoniae (Kp) that were obtained from ATCC (Ec 25922, Ec 2489, Ab 19606, Pa 27853, Pa PAO1, Kp 43816, Kp 10031), Centers for Disease Control and Prevention (Ec AR0349), BEI Resources (Ab AB5075), Micromyx LLC (Ab 8990, Kp 6951), and Belgian Coordinated Collections of Microorganisms (Pa LES431) or generated in-house (Ec 25922 64X-1). […] E. coli strain ATCC 25922 and P. aeruginosa strain LES431 were run in the presence and absence of 50% heat-inactivated fetal bovine serum (FBS; Sigma, cat. no. F4135-100 mL). Plates were mixed by shaking then incubated at 35° C. overnight (16-20 h).

Ec 25922 = assay type: cell-based, Escherichia coli
Experimental: as §1

Ec 25922 64X-1 (COL^R) = assay type: cell-based, Escherichia coli; settings: media CA-MHB
Experimental: (§2) Briefly, stock solutions of all antibacterial agents were prepared fresh in appropriate solvents (i.e. PBS, pH 7.4, DMSO, DI, etc.). Stock concentrations for drug conjugates were made at 12.5× the highest final assay concentration. All were serially diluted 2-fold, 8 or 12 times in a 96-well PCR plate (VWR cat. no. 83007-374). Bacterial cell suspensions generated from Mueller-Hinton agar (MHA) plate cultures were prepared in 0.85% saline and adjusted to ˜0.1 OD600 nm. Next, cell suspensions were diluted 1:200 in RPMI containing 5% Luria Broth (LB) to improve bacterial growth (BD Difco, cat. no. 244620) to a concentration of ˜5×10^5 CFU (colony-forming units)/mL. Due to poor solubility in Mueller-Hinton broth media, drug conjugates were evaluated in RPMI 1640 medium (+) L-glutamine, (+) sodium bicarbonate, pH 7.4 (“RPMI B”; Gibco, cat. no. 11875-085) as has been described as a more physiologically-relevant media for susceptibility testing of antibacterial compounds (1). For the conjugates, 92 μL of each cell suspension in RPMI B were added in the same 96-well plate assay format. […] Compounds were tested against a 14-strain panel comprised of E. coli (Ec), A. baumannii (Ab), P. aeruginosa (Pa), and K. pneumoniae (Kp) that were obtained from ATCC (Ec 25922, Ec 2489, Ab 19606, Pa 27853, Pa PAO1, Kp 43816, Kp 10031), Centers for Disease Control and Prevention (Ec AR0349), BEI Resources (Ab AB5075), Micromyx LLC (Ab 8990, Kp 6951), and Belgian Coordinated Collections of Microorganisms (Pa LES431) or generated in-house (Ec 25922 64X-1). […] E. coli strain ATCC 25922 and P. aeruginosa strain LES431 were run in the presence and absence of 50% heat-inactivated fetal bovine serum (FBS; Sigma, cat. no. F4135-100 mL). Plates were mixed by shaking then incubated at 35° C. overnight (16-20 h).

Ec AR0349 (mcr-1, COL^R) = assay type: cell-based, Escherichia coli; settings: media CA-MHB
Experimental: as §2

Ab 19606 (COLhet^R) = assay type: cell-based, Acinetobacter baumannii; settings: media CA-MHB
Experimental: as §2

Ab 8990 (COL^R) = assay type: cell-based, Acinetobacter baumannii
Experimental: as §1

Ab AB5075 = assay type: cell-based, Acinetobacter baumannii
Experimental: as §1

Pa 27853 = assay type: cell-based, Pseudomonas aeruginosa
Experimental: as §1

Pa LES431 = assay type: cell-based, Pseudomonas aeruginosa
Experimental: as §1

Pa PAO1 = assay type: cell-based, Pseudomonas aeruginosa
Experimental: as §1

Kp 10031 = assay type: cell-based, Klebsiella pneumoniae
Experimental: as §1

Kp 43816 = assay type: cell-based, Klebsiella pneumoniae
Experimental: as §1

Kp 6951 (COL^R) = assay type: cell-based, Klebsiella pneumoniae
Experimental: as §1

C#CCOCCOCCOCCOCCC(=O)N[C@@H](CCCC)C(=O)N[C@@H](CCN)C(=O)N[C@H](C(=O)N[C@@H](CCN)C(=O)N[C@H]1CCNC(=O)[C@H]([C@@H](C)O)NC(=O)[C@H](CCN)NC(=O)[C@H](CCN)NC(=O)[C@H](CC(C)C)NC(=O)[C@@H](Cc2ccccc2)NC(=O)[C@H](CCN)NC1=O)[C@H](O)CCCCCC [Int-80] ({Propargyl(OCH2CH2)4CO}-[Nle][Dab][X1][Dab][Dab][Dab][dF]L[Dab][Dab]T; lactam 5-C)
% LPS neutralization of TM (LPS from E. coli O111:B4): 55.7%

C#CCOCCOCCOCCOCCC(=O)N[C@@H](CCN)C(=O)N[C@H](C(=O)N[C@@H](CCN)C(=O)N[C@H]1CCNC(=O)[C@H]([C@@H](C)O)NC(=O)[C@H](CCN)NC(=O)[C@H](CCN)NC(=O)[C@H](CC(C)C)NC(=O)[C@@H](Cc2ccccc2)NC(=O)[C@H](CCN)NC1=O)[C@H](O)CCc1ccccc1 [Int-83] ({Propargyl(OCH2CH2)4CO}-[Dab][X10][Dab][Dab][Dab][dF]L[Dab][Dab]T; lactam 4-C)
% LPS neutralization of TM (LPS from E. coli O111:B4): 30.9%

C#CCOCCOCCOCCOCCC(=O)N[C@@H](CCN)C(=O)N[C@H](C(=O)N[C@@H](CCN)C(=O)N[C@H]1CCNC(=O)[C@H]([C@@H](C)O)NC(=O)[C@H](CCN)NC(=O)[C@H](CCN)NC(=O)[C@H](CC(C)C)NC(=O)[C@@H](Cc2ccccc2)NC(=O)[C@H](CCN)NC1=O)[C@H](O)CCCCCCCC [Int-84] ({Propargyl(OCH2CH2)4CO}-[Dab][X11][Dab][Dab][Dab][dF]L[Dab][Dab]T; lactam 4-C)
% LPS neutralization of TM (LPS from E. coli O111:B4): 53.7%

C#CCOCCOCCOCCOCCC(=O)N1C[C@@H](C(=O)N[C@@H](CCCC)C(=O)N[C@@H](CCN)C(=O)N[C@H](C(=O)NNC(=O)N[C@H]2CCNC(=O)[C@H]([C@@H](C)O)NC(=O)[C@H](CCN)NC(=O)[C@H](CCN)NC(=O)[C@H](CC(C)C)NC(=O)C(Cc3ccccc3)NC(=O)[C@H](CCN)NC2=O)[C@@H](C)O)[C@H](C(=O)N[C@@H](CCCC)C(=O)N[C@@H](CCN)C(=O)N[C@H](C(=O)NNC(=O)N[C@H]2CCNC(=O)C(C(C)O)NC(=O)[C@H](CCN)NC(=O)[C@H](CCN)NC(=O)[C@H](CC(C)C)NC(=O)[C@@H](Cc3ccccc3)NC(=O)[C@H](CCN)NC2=O)[C@@H](C)O)C1 (stereo partly shown) [Int-107] (I: [Nle][Dab]T[azaGly][Dab][Dab][dF]L[Dab][Dab][ξT] / II: [Nle][Dab]T[azaGly][Dab][Dab][ξF]L[Dab][Dab]T; lactam I:5-I:C, II:5-II:C; linker I:N-II:N via X9)
MIC (Ec 2469; Ec 2469, media CA-MHB): 2 µg/mL (≈ 0.759 µM) | MIC (Ec 25922; Ec 25922 + FBS (50%, heat-inactivated), media CA-MHB): 0.5 µg/mL | MIC (Ec 25922; Ec 25922, media CA-MHB): 2 µg/mL (≈ 0.759 µM) | MIC (Ec 25922 64X-1 (COL^R)): 4 µg/mL (≈ 1.52 µM) | MIC (Ec AR0349 (mcr-1, COL^R)): 2 µg/mL (≈ 0.759 µM) | MIC (Ab 19606 (COLhet^R)): 2 µg/mL (≈ 0.759 µM) | MIC (Ab 8990 (COL^R); Ab 8990 (COL^R), media CA-MHB): >128 µg/mL | MIC (Ab AB5075; Ab AB5075, media CA-MHB): 2 µg/mL (≈ 0.759 µM) | MIC (Pa 27853; Pa 27853, media CA-MHB): 2 µg/mL (≈ 0.759 µM) | MIC (Pa LES431; Pa LES431 + FBS (50%, heat-inactivated), media CA-MHB): 8 µg/mL | MIC (Pa LES431; Pa LES431, media CA-MHB): 2 µg/mL (≈ 0.759 µM) | MIC (Pa PAO1; Pa PAO1, media CA-MHB): 2 µg/mL (≈ 0.759 µM) | MIC (Kp 10031; Kp 10031, media CA-MHB): 2 µg/mL (≈ 0.759 µM) | MIC (Kp 43816; Kp 43816, media CA-MHB): 2 µg/mL (≈ 0.759 µM) | MIC (Kp 6951 (COL^R); Kp 6951 (COL^R), media CA-MHB): 16 µg/mL (≈ 6.07 µM)

C#CCOCCOCCOCCOCCNC(=O)CN(CC(=O)N[C@@H](CCCC)C(=O)N[C@@H](CCN)C(=O)N[C@H](C(=O)NNC(=O)N[C@H]1CCNC(=O)[C@H]([C@@H](C)O)NC(=O)[C@H](CCN)NC(=O)[C@H](CCN)NC(=O)[C@H](CC(C)C)NC(=O)[C@@H](Cc2ccccc2)NC(=O)[C@H](CCN)NC1=O)[C@H](O)CCCCC)CC(=O)N[C@@H](CCCC)C(=O)N[C@@H](CCN)C(=O)N[C@H](C(=O)NNC(=O)N[C@H]1CCNC(=O)[C@H]([C@@H](C)O)NC(=O)[C@H](CCN)NC(=O)[C@H](CCN)NC(=O)[C@H](CC(C)C)NC(=O)[C@@H](Cc2ccccc2)NC(=O)[C@H](CCN)NC1=O)[C@H](O)CCCCC [Int-111] (I: [Nle][Dab][X3][azaGly][Dab][Dab][dF]L[Dab][Dab]T / II: [Nle][Dab][X3][azaGly][Dab][Dab][dF]L[Dab][Dab]T; lactam I:5-I:C, II:5-II:C; linker I:N-II:N via X4)
MIC (Ec 2469): 4 µg/mL (≈ 1.45 µM) | MIC (Ec 25922): 4 µg/mL (≈ 1.45 µM) | MIC (Ec 25922 64X-1 (COL^R)): 4 µg/mL (≈ 1.45 µM) | MIC (Ec AR0349 (mcr-1, COL^R)): 4 µg/mL (≈ 1.45 µM) | MIC (Ab 19606 (COLhet^R)): 4 µg/mL (≈ 1.45 µM) | MIC (Ab 8990 (COL^R)): 32 µg/mL (≈ 11.6 µM) | MIC (Ab AB5075): 4 µg/mL (≈ 1.45 µM) | MIC (Pa 27853): 4 µg/mL (≈ 1.45 µM) | MIC (Pa LES431): 4 µg/mL (≈ 1.45 µM) | MIC (Pa PAO1; PAO1): 8 µg/mL (≈ 2.91 µM) | MIC (Kp 10031): 4 µg/mL (≈ 1.45 µM) | MIC (Kp 43816): 4 µg/mL (≈ 1.45 µM) | MIC (Kp 6951 (COL^R)): 8 µg/mL (≈ 2.91 µM)
